Measured values taken from PMC8706998, “Lipid Nanocarriers-Loaded Nanocomposite as a Suitable Platform to Release Antibacterial and Antioxidant Agents for Immediate Dental Implant Placement Restorative Treatment” (Pharmaceutics, 2021).
Several values for one entry are separate records, joined by “and”; a condition that tells them apart may be missing. Equal values may be shown once.

Columns and labels:
[1] = CPX release study, dialysis tube method; type: physicochemical; conditions: from BioQ-CPX, citrate buffer pH 5.5 + acetic acid, after 1.5 h
Method: (§1) The system was submerged in 15 mL of the same medium; (b) Franz diffusion cells (Permeagear, flat flange joint, 9 mm orifice diameter, 15 mL acceptor volume, SES GmbH-Analysesysteme, Bechenheim, Germany) consisting in a donor chamber filled with 10 mg of powder and soaked with 0.5 mL of citrate buffer pH 5.5, and an acceptor chamber filled with 15 mL of the same medium plus glacial acetic acid 0.01% (v/v). A cellulose dialysis membrane (Medicell Membranes, London, UK: MWCO: 12–14,000 Da) previously soaked with the acceptor fluid, was inserted between the two compartments.
(§2) QRC release studies were carried out using a modified transwell permeable support (0.45 µm) filled with 5 mg of the BioQ-CPX powder and soaked with 0.2 mL of citrate buffer pH 5.5. The entire system was dipped inside a beaker filled with 8 mL of 1-octanol as a suitable acceptor fluid. […] The experiments were carried out at 37 ± 0.5 °C under constant stirring and protected by light exposure while, immediately after sampling, opportune volumes of fresh acceptor fluid were added to maintain the sink conditions. Data are reported as means ± SE (n = 6). Drug release profiles were elaborated using OriginPro 8.5 software and fitted with semi-empirical model equations. Fittings were validated by using R^2 value where a p-value of less than 0.05 was considered statistically significant.

[2] = test system: Staphylococcus aureus ATCC 25923 strain, growing as planktonic cells; experiment: Kill curve assay; type: cell-based; conditions: ca. 0.1 mg/mL CPX (highest amount in BioQ-CPX); data not shown
Method: Kill curve assays were performed to test the antimicrobial efficacy of BioQ-CPX, BioQ, and the Blank CTS matrix against the indicator pathogen Staphylococcus aureus ATCC 25923 strain, growing as planktonic cells. Briefly, a single colony of S. aureus strain was picked up and pre-cultivated (ca. 16 h) at 37 °C with shacking (160 rpm) in tryptone soy broth medium (hereinafter named as TSB; Merck, Milan, Italy). The same medium was solidified by adding 15 g/L of bacteriological agar when needed. Bacterial cells were then inoculated [0.05% v/v corresponding to ca. 5 × 10^5 colony forming units (CFU) per mL of culture] in TSB medium amended with increasing concentrations (i.e., 1, 2.5, and 5 mg/mL) of the above-mentioned samples. The set up bacterial cultures were challenged for 24 h according to the same pre-culturing conditions. The actual number of viable S. aureus CFU/mL—who survived the challenge exerted by BioQ-CPX, BioQ, and Blank matrix—was evaluated through the spot plate count method and compared to unchallenged cultures. The data are reported as average values (n = 3) of the CFU/mL in the logarithmic (Log10) scale with standard deviation (SD).

[3] = test system: S. aureus cells growing as a biofilm; experiment: Biofilm inhibition, crystal violet staining; type: cell-based, Staphylococcus aureus; conditions: 5 mg BioQ-CPX in 200 μL culture, CPX at the same concentration as in BioQ-CPX; 24 h, 37 °C
Method: Briefly, pre-cultivated S. aureus cells for 16 h at 37 °C were inoculated (1% v/v corresponding to ca. 1 × 10^7 CFU/mL) in TSB medium. The set-up culture was aliquoted (200 μL) in a 96-well microtiter plate. […] The microtiter plate was then incubated for 24 h at 37 °C under static mode, allowing for bacterial biofilm formation. After the incubation period, bacterial cultures have been disposed, while each well was washed 3 time with 200 μL of sterile physiological (NaCl 0.9% w/v) solution to remove loosely adherent cells. Then, S. aureus biofilms were stained by adding 200 μL of an aqueous crystal violet (0.1% w/v) solution at room temperature for 15 min. Subsequently, wells were washed 5 times with 200 μL of physiological solution to remove the excess of unbound crystal violet and left to dry for 20 min at 65 °C. Finally, crystal violet was solubilized by adding 200 μL of an acetic acid (30% v/v) solution, the absorbance (Abs) being read at 600 nm using a DU-730 Life Science spectrophotometer (Beckman Coulter, Brea, CA, USA). Unchallenged cultures were used as reference biofilms (positive control), while wells containing only the medium utilized in this study were used as a negative control. The percentage of biofilm inhibition was calculated as follows: Biofilm inhibition (%)=(Abs positive control−Abs challenge)/Abs positive control×100

[4] = Ex vivo permeation/penetration experiments in Franz-type cells; type: in vitro ADME, pig; conditions: from 30 mg BioQ-CPX
Method: Tissue specimens were obtained from the vestibular area of the retromolar trigone derived from 6–8-month-old pigs supplied by the Municipal Slaughterhouse of Villabate (Palermo, Italy) since withdrawn from animals intended for human consumption. By a refrigerated transport box, the specimens were immediately transferred to the laboratory within 1 h from animal sacrifice and surgically treated to remove both adipose and connective tissues in excess. Afterward, they were dipped for 30 min in a 5% THR (w/v) isotonic solution and then stored at −80 °C for a minimum period of one week. Before the permeation/penetration experiments, tissue samples were accurately washed to remove the cryoprotectant, and, subsequently, thermal shocked to obtain the buccal mucosa. Briefly, tissue samples were dipped for 30 s in a pre-warmed (70 °C) isotonic solution, and then the mucosa was carefully peeled off from the connective tissue, obtaining the heat-separated epithelium along with the intact basal lamina. Finally, it was equilibrated in an isotonic solution for 3 h by replacing the medium every 15 min to remove all the biological matter, which could affect the analysis, before use.
The ex vivo permeation/penetration studies were carried out using vertical Franz-type diffusion cells. Briefly, appropriate sections of buccal mucosa were mounted between the donor and the acceptor chambers filled with 1 mL of citrate buffer pH 5.5 and 15 mL of citrate buffer pH 5.5 amended with acetic acid 0.1% (v/v), Acys 0.002% (w/v), and β-CD 3% (w/v). The whole system was equilibrated at 37 ± 0.5 °C for 30 min. Afterward, the medium was removed from the donor compartment, promptly replaced with 30 mg of BioQ-CPX, and soaked with 0.2 mL of citrate buffer pH 5.5. Every 30 min, aliquots (0.5 mL) were withdrawn from the acceptor chamber and immediately replaced with the same volume of fresh acceptor fluid to maintain the sink conditions. Experiments were carried out at 37 ± 0.5 °C in the dark and under constant stirring, being stopped at different time points ranging from 1 to 6 h. The amount of permeated QRC and CPX were quantified by UV–Vis analysis. Data are reported as means ± SE (n = 6).
Briefly, the mucosa was dipped into 2 mL of methanol and warmed up to 60 °C. The extraction procedure was performed twice, and the collected extraction liquors were transferred into a 10 mL flask and brought to volume with fresh methanol. Thus, QRC and CPX amounts were determined by UV–Vis analysis. Results are reported as means ± SE.

[5] = CPX release study, Franz diffusion cell with cellulose membrane; type: physicochemical; conditions: CPX release from BioQ-CPX, data up to 9 h
Method: as §1, §2

O=C(O)c1cn(C2CC2)c2cc(N3CCNCC3)c(F)cc2c1=O [CPX, Ciprofloxacin]
CPX released [1]: 80%
effect on bacterial growth [2]: did prevent bacterial growth
S. aureus biofilm formation inhibition [3]: ca. 55%
maximum amount accumulated into the mucosa ([4]; after 5 h): about 5 % of drugs dose
amount accumulated into the mucosa ([4]; first hour from application): about 4 % of dose
Korsmeyer-Peppas n [5]: 0.8280 ± 0.0125 and 0.8280
Korsmeyer-Peppas with Tlag n [5]: 0.8293
First-Order k ([5]; time in hours): 0.1359
Korsmeyer-Peppas k ([5]; time in hours): 0.1134
Korsmeyer-Peppas with Tlag k ([5]; time in hours): 0.1113
Korsmeyer-Peppas with Tlag: Tlag ([5]; time in hours): −0.031
Zero-Order k ([5]; time in hours): 0.079
